Patent US20260109715A1, “IMIDAZOPYRIDINE DERIVATIVES WITH BICYCLIC STRUCTURE” (PUBLIC UNIVERSITY CORPORATION YOKOHAMA CITY UNIVERSITY, priority 2022, published 2026)

Columns and labels:
[1] = biological target: human SMG1 enzyme (Homo sapiens, UniProt Q96Q15); assay: Measurement of SMG1 kinase activity (ADP-Glo Kinase Assay); type: biochemical; conditions: purified human SMG1 enzyme 5 nM, Upf1 peptide substrate, ATP 4 μM; qAC50 synonymous with IC50; read-out: Test Example 1 ADP-Glo IC50
How it was run: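 Purified human SMG1 (5 nM) preincubated with compound (1% DMSO) 15 min at room temperature in HEPES pH 7.5 buffer with MnCl2, then reacted 60 min with Upf1 peptide (8 μg/mL) and 4 μM ATP. ADP formed measured by ADP-Glo luminescence; IC50 by 4-parameter logistic fit, normalised to DMSO (0%) and enzyme-free (−100%) wells.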

[2] = test system: Snhg1 transcript in tumor tissues of mice subcutaneously implanted with EMT6 murine breast cancer cell line; assay: Evaluation of NMD inhibitory activity in vivo (Snhg1 transcript in EMT6 tumor tissue after oral administration); conditions: 6 hours after administration, BALB/c mice
Method: The NMD inhibitory activity of a compound of the present invention or a pharmaceutically acceptable salt thereof in vivo can be measured, for example, by the method described below. Using mice subcutaneously implanted with EMT6 murine breast cancer cell line, tumor tissues 6 hours after oral administration of a test substance are excised, and the increase in Snhg1 transcript is quantified as an indicator of NMD inhibition in the tumor, in the same manner as in the in vitro method.
In this test, NMD inhibitory activity in tumor tissues was evaluated when a test substance was orally administered to mice subcutaneously implanted with EMT6 murine breast cancer cell line. As an indicator of NMD inhibitory activity, the increase in the transcript of Snhg1, an NMD target gene, was quantified. First, BALB/c mice were subcutaneously implanted with EMT6 cells (ATCC), and engraftment was confirmed 7 days later. Six hours after administration of the test substance, mice were euthanized, and the collected tumor tissues were cryopreserved. RNA was extracted from the tumor tissues using the illustra RNAspin Mini RNA Isolation kit (GE Healthcare Life Sciences). After synthesizing cDNA using the High-Capacity cDNA Reverse Transcription Kits (Applied Biosystems, 4368813), the cDNA was mixed with PrimeTime Gene Expression Master Mix (Integrated DNA Technologies) and various probes, and gene expression was quantified by QuantStudio 6 Flex (Thermo Fisher Scientific Inc.). For the probe for the Snhg1 gene, which is an NMD target, Mm.PT.58.44039547 (FAM) (Integrated DNA Technologies) was used, and for the probe for the Gapdh gene, which is an endogenous control, Mm99999915_g2 (VIC-PL) (Applied Biosystems) was used. The relative quantification of Snhg1 transcripts in each sample was calculated by the ΔΔCT method using Gapdh as an endogenous control, and the expression level of Snhg1 in each test substance administration group was calculated by setting the expression level of the Vehicle group (0.5% methylcellulose administration group) to 1.

[3] = test system: Snhg1 transcript (NMD target gene) in EMT6 murine breast cancer cell line; assay: Measurement of NMD inhibitory activity in cells (increase in Snhg1 transcript, real-time PCR); parameters: species or system mouse; conditions: Mus musculus, 6 hours treatment, concentration giving 1/2 of maximum Snhg1 fold change of positive control, read-out: Test Example 2 Cell-based Snhg1 EC50
How it was run: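 EMT6 cells treated with serially diluted compound (2% DMSO final) for 6 h; Snhg1 transcript quantified by real-time PCR (ΔΔCT, Tbp endogenous control, untreated wells set to 1). EC50 taken as concentration giving half the maximum fold change of a known NMD inhibitor positive control.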

Sequence of human SMG1 enzyme (Q96Q15 whole entry): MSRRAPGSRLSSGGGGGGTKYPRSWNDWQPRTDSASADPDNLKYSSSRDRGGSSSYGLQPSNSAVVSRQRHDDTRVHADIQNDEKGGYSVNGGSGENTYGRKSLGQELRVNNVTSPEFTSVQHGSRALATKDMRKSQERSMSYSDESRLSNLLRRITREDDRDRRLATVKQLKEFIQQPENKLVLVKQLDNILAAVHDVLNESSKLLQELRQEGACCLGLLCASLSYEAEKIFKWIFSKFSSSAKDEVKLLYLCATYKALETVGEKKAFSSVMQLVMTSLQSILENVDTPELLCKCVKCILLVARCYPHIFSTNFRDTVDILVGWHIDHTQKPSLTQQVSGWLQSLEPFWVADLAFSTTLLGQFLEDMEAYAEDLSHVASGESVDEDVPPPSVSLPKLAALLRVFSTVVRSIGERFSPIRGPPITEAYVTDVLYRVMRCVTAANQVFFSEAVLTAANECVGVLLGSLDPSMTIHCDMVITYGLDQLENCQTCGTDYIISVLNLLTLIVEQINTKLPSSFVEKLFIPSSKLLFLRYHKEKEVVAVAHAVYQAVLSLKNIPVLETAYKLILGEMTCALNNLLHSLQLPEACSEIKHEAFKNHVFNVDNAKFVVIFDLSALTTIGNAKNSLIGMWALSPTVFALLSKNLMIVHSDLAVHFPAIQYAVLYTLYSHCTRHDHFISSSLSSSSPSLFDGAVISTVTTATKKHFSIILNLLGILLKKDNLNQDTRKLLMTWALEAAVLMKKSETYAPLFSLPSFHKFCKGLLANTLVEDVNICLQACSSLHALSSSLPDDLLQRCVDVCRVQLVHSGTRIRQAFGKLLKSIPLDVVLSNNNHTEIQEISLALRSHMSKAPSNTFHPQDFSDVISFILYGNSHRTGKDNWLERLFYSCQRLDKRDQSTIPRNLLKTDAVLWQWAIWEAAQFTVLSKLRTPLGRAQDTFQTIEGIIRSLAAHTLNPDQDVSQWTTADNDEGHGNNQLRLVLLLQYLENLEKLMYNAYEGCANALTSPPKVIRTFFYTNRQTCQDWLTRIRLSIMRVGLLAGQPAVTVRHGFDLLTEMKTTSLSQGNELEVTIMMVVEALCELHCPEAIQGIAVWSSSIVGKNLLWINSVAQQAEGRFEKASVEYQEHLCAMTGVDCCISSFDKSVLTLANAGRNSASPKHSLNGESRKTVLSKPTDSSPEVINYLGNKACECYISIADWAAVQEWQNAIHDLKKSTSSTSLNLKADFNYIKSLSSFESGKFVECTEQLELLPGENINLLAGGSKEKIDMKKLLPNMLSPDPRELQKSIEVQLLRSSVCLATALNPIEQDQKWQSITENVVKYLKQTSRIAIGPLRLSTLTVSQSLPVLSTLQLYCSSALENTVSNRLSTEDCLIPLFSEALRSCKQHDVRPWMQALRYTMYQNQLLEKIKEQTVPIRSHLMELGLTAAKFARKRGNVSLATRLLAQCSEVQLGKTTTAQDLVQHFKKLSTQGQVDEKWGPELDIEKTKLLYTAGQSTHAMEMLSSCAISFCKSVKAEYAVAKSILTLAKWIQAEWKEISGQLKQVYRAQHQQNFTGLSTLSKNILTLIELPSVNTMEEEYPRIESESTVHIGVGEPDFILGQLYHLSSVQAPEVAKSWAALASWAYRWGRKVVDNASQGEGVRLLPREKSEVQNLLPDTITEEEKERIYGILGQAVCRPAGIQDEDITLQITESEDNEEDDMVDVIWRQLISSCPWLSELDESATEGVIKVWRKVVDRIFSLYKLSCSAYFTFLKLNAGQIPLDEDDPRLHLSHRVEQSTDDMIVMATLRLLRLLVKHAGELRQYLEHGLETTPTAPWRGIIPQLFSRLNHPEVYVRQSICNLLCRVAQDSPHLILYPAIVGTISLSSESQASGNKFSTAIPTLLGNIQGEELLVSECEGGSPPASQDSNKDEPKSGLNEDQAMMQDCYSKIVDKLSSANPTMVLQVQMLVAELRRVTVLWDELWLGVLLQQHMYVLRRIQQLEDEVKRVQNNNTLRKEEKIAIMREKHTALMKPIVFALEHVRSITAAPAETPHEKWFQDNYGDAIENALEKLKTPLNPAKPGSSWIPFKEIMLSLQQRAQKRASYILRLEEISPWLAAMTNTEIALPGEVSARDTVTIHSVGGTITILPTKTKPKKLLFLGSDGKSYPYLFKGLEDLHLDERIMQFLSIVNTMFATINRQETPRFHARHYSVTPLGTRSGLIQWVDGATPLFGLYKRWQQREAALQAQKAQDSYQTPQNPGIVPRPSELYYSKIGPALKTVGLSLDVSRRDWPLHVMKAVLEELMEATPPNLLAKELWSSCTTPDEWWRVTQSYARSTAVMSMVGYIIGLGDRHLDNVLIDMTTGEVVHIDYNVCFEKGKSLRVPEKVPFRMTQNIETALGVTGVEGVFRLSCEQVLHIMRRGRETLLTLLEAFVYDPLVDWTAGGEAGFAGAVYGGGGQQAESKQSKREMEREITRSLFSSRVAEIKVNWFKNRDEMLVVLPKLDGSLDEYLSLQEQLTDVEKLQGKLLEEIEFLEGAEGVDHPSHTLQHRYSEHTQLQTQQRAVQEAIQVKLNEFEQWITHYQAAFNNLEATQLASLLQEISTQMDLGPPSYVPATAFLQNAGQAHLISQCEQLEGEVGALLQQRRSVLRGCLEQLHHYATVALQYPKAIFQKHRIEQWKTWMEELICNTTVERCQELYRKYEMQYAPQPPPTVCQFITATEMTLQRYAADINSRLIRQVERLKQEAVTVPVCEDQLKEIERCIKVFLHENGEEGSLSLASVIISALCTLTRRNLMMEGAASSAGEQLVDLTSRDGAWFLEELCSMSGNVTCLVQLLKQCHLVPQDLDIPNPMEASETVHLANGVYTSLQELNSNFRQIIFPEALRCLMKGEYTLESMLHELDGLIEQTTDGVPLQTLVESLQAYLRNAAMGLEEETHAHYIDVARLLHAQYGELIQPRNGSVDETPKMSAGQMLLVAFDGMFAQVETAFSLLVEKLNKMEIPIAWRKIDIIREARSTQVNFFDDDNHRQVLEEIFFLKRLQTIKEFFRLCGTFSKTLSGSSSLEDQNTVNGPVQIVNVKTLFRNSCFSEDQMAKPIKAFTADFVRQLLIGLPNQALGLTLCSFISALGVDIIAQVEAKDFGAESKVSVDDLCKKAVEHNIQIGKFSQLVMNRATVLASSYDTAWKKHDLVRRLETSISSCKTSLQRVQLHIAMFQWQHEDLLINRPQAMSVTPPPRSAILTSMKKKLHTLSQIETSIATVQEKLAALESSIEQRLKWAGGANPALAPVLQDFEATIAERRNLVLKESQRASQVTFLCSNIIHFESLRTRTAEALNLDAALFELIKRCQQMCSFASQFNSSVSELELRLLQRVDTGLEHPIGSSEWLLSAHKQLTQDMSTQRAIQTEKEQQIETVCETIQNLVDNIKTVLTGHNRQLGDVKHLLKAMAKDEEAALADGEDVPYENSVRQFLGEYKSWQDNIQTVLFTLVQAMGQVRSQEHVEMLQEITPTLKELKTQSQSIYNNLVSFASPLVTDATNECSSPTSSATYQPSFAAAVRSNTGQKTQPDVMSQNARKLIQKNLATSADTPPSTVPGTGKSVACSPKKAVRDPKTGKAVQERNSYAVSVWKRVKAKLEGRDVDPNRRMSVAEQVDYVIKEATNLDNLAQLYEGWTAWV

| Compound | IC50 [1] [nM] | Snhg1 fold change ([2]; 100 mg/kg oral) | EC50 [3] [nM] | Snhg1 fold change ([2]; 30 mg/kg oral) | Snhg1 fold change ([2]; 10 mg/kg oral) |
| --- | --- | --- | --- | --- | --- |
| COc1cc(C(C)C)ncc1-c1nccc2[nH]c(=O)c(-c3nc4cnc(Cl)cc4[nH]3)cc12 [Example 61, 3-(6-chloro-1H-imidazo[4,5-c]pyridin-2-yl)-5-[4-methoxy-6-(propan-2-yl)pyridin-3-yl]-1,6-naphthyridin-2(1H)-one] | 1.4 | 4.3 | 26 | – | – |
| CCc1nc(Cl)cc2[nH]c(-c3cc4c(-c5ccc(C)nc5OC)nccc4[nH]c3=O)nc12 [Example 68, 3-(6-chloro-4-ethyl-1H-imidazo[4,5-c]pyridin-2-yl)-5-(2-methoxy-6-methylpyridin-3-yl)-1,6-naphthyridin-2(1H)-one] | 0.62 | – | 10 | 8.3 | – |
| CCc1nc(Cl)cc2[nH]c(-c3cc4c(-c5cnc(OC)nc5OC)nccc4[nH]c3=O)nc12 [Example 70, 3-(6-chloro-4-ethyl-1H-imidazo[4,5-c]pyridin-2-yl)-5-(2,4-dimethoxypyrimidin-5-yl)-1,6-naphthyridin-2(1H)-one] | 0.56 | – | 15 | – | 3.6 |
| COc1ncc(-c2nccc3[nH]c(=O)c(-c4nc5c(NCC(F)F)nc(Cl)cc5[nH]4)cc23)c(OC)n1 [Example 72, 3-(6-chloro-4-[(2,2-difluoroethyl)amino]-1H-imidazo[4,5-c]pyridin-2-yl)-5-(2,4-dimethoxypyrimidin-5-yl)-1,6-naphthyridin-2(1H)-one] | 0.81 | – | 4.5 | 4.3 | – |
| Cc1nn(C(F)F)c(C)c1-c1nccc2[nH]c(=O)c(-c3nc4c(C)nc(Cl)cc4[nH]3)cc12 [Example 84, 3-(6-chloro-4-methyl-1H-imidazo[4,5-c]pyridin-2-yl)-5-[1-(difluoromethyl)-3,5-dimethyl-1H-pyrazol-4-yl]-1,6-naphthyridin-2(1H)-one] | 1 | – | 42 | – | 4.6 |
| Cc1nn(C(F)F)c(C)c1-c1nccc2[nH]c(=O)c(-c3nc4c(N5C[C@@H](O)C[C@H]5C)nc(Cl)cc4[nH]3)cc12 [Example 85, 3-{6-chloro-4-[(2R,4S)-4-hydroxy-2-methylpyrrolidin-1-yl]-1H-imidazo[4,5-c]pyridin-2-yl}-5-[1-(difluoromethyl)-3,5-dimethyl-1H-pyrazol-4-yl]-1,6-naphthyridin-2(1H)-one] | 0.39 | – | 0.47 | – | 6.9 |
| Cc1nc(Cl)cc2[nH]c(-c3cc4c(-c5c(C6CC6)nn(C(F)F)c5C)nccc4[nH]c3=O)nc12 [Example 91, 3-(6-chloro-4-methyl-1H-imidazo[4,5-c]pyridin-2-yl)-5-[3-cyclopropyl-1-(difluoromethyl)-5-methyl-1H-pyrazol-4-yl]-1,6-naphthyridin-2(1H)-one] | 1.8 | – | 34 | – | 5.9 |
| CCc1nc(Cl)cc2[nH]c(-c3cc4c(-c5c(C6CC6)nn(C(F)F)c5C)nccc4[nH]c3=O)nc12 [Example 92, 3-(6-chloro-4-ethyl-1H-imidazo[4,5-c]pyridin-2-yl)-5-[3-cyclopropyl-1-(difluoromethyl)-5-methyl-1H-pyrazol-4-yl]-1,6-naphthyridin-2(1H)-one] | 1.9 | – | 20 | – | 6.5 |
| C[C@@H]1COCCN1c1nc(Cl)cc2[nH]c(-c3cc4cnccc4[nH]c3=O)nc12.Cc1ccc(S(=O)(=O)O)cc1 [Example 117, 3-{6-chloro-4-[(3R)-3-methylmorpholin-4-yl]-1H-imidazo[4,5-c]pyridin-2-yl}-1,6-naphthyridin-2(1H)-one p-toluenesulfonate] | 5.1 | – | 80 | – | 5.1 |
| CS(=O)(=O)O.C[C@@H]1C[C@@H](F)CN1c1nc(Cl)cc2[nH]c(-c3cc4cnccc4[nH]c3=O)nc12 [Example 118, 3-{6-chloro-4-[(2R,4R)-4-fluoro-2-methylpyrrolidin-1-yl]-1H-imidazo[4,5-c]pyridin-2-yl}-1,6-naphthyridin-2(1H)-one methanesulfonate] | 1.8 | – | 34 | – | 9.1 |
| CS(=O)(=O)O.Cc1nccc2[nH]c(=O)c(-c3nc4c(N5CC[C@H]5C)nc(Cl)cc4[nH]3)cc12 [Example 123, 3-{6-chloro-4-[(2R)-2-methylazetidin-1-yl]-1H-imidazo[4,5-c]pyridin-2-yl}-5-methyl-1,6-naphthyridin-2(1H)-one methanesulfonate] | 1.6 | – | 46 | 4.4 | – |
| CS(=O)(=O)O.Cc1nccc2[nH]c(=O)c(-c3nc4c(N5CCOC[C@H]5C)nc(Cl)cc4[nH]3)cc12 [Example 124, 3-{6-chloro-4-[(3R)-3-methylmorpholin-4-yl]-1H-imidazo[4,5-c]pyridin-2-yl}-5-methyl-1,6-naphthyridin-2(1H)-one methanesulfonate] | 3.2 | – | 55 | – | 4.6 |
| CS(=O)(=O)O.Cc1nccc2[nH]c(=O)c(-c3nc4c(C5CCOCC5)nc(Cl)cc4[nH]3)cc12 [Example 125, 3-[6-chloro-4-(tetrahydro-2H-pyran-4-yl)-1H-imidazo[4,5-c]pyridin-2-yl]-5-methyl-1,6-naphthyridin-2(1H)-one methanesulfonate] | 0.72 | – | 23 | – | 6.5 |
| CS(=O)(=O)O.O=c1[nH]c2ccncc2cc1-c1nc2c(C3CCOCC3)nc(Cl)cc2[nH]1 [Example 126, 3-[6-chloro-4-(tetrahydro-2H-pyran-4-yl)-1H-imidazo[4,5-c]pyridin-2-yl]-1,6-naphthyridin-2(1H)-one methanesulfonate] | 1.6 | – | 29 | 4.1 | – |
| CCc1nccc2[nH]c(=O)c(-c3nc4c(C5CCOCC5)nc(Cl)cc4[nH]3)cc12.CS(=O)(=O)O [Example 127, 3-[6-chloro-4-(tetrahydro-2H-pyran-4-yl)-1H-imidazo[4,5-c]pyridin-2-yl]-5-ethyl-1,6-naphthyridin-2(1H)-one methanesulfonate] | 0.96 | – | 34 | – | 6.2 |
| CC1(c2nccc3[nH]c(=O)c(-c4nc5c(C6CCOCC6)nc(Cl)cc5[nH]4)cc23)CC1 [Example 128, 3-[6-chloro-4-(tetrahydro-2H-pyran-4-yl)-1H-imidazo[4,5,c]pyridin-2-yl]-5-(1-methylcyclopropyl)-1,6-naphthyridin-2(1H)-one methanesulfonate] | 4.5 | – | 56 | 6.2 | – |
| CS(=O)(=O)O.Cc1ccccc1-c1nccc2[nH]c(=O)c(-c3nc4c(NCC(F)(F)F)nc(Cl)cc4[nH]3)cc12 [Example 129, 3-{6-chloro-4-[(2,2,2-trifluoroethyl)amino]-1H-imidazo[4,5-c]pyridin-2-yl}-5-(2-methylphenyl)-1,6-naphthyridin-2(1H)-one methanesulfonate] | 3.5 | – | 17 | – | 9.0 |
| COc1ccc(F)cc1-c1nccc2[nH]c(=O)c(-c3nc4c(C)nc(Cl)cc4[nH]3)cc12.CS(=O)(=O)O [Example 131, 3-(6-chloro-4-methyl-1H-imidazo[4,5-c]pyridin-2-yl)-5-(5-fluoro-2-methoxyphenyl)-1,6-naphthyridin-2(1H)-one methanesulfonate] | 0.78 | – | 22 | – | 7.1 |
| CS(=O)(=O)O.Cc1nc(Cl)cc2[nH]c(-c3cc4c(-c5ccccc5OC(F)F)nccc4[nH]c3=O)nc12 [Example 132, 3-(6-chloro-4-methyl-1H-imidazo[4,5-c]pyridin-2-yl)-5-[2-(difluoromethoxy)phenyl]-1,6-naphthyridin-2(1H)-one methanesulfonate] | 3.5 | – | 50 | – | 7.4 |
